What is called IC50 is the concentration at which inhibition is half-maximal.

The subject of experiment [1] is haloperidol-induced catalepsy. Briefly: haloperidol-induced catalepsy, a model of parkinsonian motor disability. Type of experiment: in vivo, mice. An excerpt: Furthermore, haloperidol-induced catalepsy, a model of parkinsonian motor disability, is reduced in M4 knockout mice as compared to wild-type controls. […] The reversal by scopolamine was uncommonly robust and more pronounced than we observe with agents targeting a number of other targets being evaluated for potential antiparkinsonian effects, including metabotropic glutamate (mGlu) receptors mGlu4 or mGlu5, A2A adenosine receptors, and NMDA receptors. […] Taken together with the extensive studies of M4 modulation of basal ganglia and motor function, these studies provide compelling evidence that M4 is the dominant mAChR subtype involved in the antiparkinsonian effects of non-selective mAChR antagonists and provide support for discovery and development of selective M4 antagonists for treatment of neurodegenerative disease such as PD, dystonia, tardive dyskinesia and other movement disorders.

Another experiment has as its system locomotor activity. Conditions: M4 knockout mice, but not the other four mAChR subtypes (M1-3,5); cited from earlier work.
A further experiment concerns the target T1, Human M4 (Homo sapiens, UniProt P08173).
T1 construct: expressed in transfected cells; host or cells: CHO-K1 (ATCC), stably co-expressing chimeric G protein Gqi5
T1 sequence (P08173 1-479): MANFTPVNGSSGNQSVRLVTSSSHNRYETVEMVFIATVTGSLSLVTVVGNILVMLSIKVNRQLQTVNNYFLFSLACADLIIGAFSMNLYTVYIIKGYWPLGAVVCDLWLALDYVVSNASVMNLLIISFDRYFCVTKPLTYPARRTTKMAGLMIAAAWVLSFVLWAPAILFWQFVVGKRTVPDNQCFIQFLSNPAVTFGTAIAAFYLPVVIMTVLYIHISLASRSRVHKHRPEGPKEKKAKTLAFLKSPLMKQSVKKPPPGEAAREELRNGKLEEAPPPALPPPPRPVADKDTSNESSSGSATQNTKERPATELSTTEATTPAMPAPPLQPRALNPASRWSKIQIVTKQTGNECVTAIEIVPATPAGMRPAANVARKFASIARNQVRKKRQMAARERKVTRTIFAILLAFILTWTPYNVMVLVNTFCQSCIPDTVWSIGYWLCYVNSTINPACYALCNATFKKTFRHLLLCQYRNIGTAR
Briefly: mAChR M4 cell-based functional assay (calcium flux, antagonist mode). Conditions: for remaining activity at 30 µM: % ACh maximum at 30 μM, read-out: Emin; for IC50: M4/Gqi5/CHO-K1 cells, concentration-dependent decrease of the EC80 acetylcholine response.

As to `CN1[C@@H]2C[C@@H](OC(=O)[C@H](CO)c3ccccc3)C[C@H]1[C@@H]1O[C@@H]12` [scopolamine], the “reduction of catalepsy induced by haloperidol” value in experiment [1] (M4 KO mice) was “ineffective”. Also, the “reversal of catalepsy induced by haloperidol” value in experiment [1] (WT mice) was “completely reversed”. For the same compound, the locomotor-activating effects entry in the experiment with locomotor activity was “dramatically reduced”.
Turning to `Fc1ccc(Cl)c(-c2ccc(OCC3CC4(CCN(CC5CCCOC5)CC4)C3)nn2)c1` (centres unmarked) [Compound 63, 2-[[6-(2-chloro-5-fluoro-phenyl)pyridazin-3-yl]oxymethyl]-7-(tetrahydropyran-3-ylmethyl)-7-azaspiro[3.5]nonane], at Human M4, the remaining activity at 30 µM amounted to 7.8% and the IC50 came out at 2.13 µM.
In the same order, the values of `Cc1nn(C)cc1-c1ccc(OC2CC3(CCN(CC4CCOCC4)CC3)C2)nn1` [Compound 27, 2-[6-(1,3-dimethylpyrazol-4-yl)pyridazin-3-yl]oxy-7-(tetrahydropyran-4-ylmethyl)-7-azaspiro[3.5]nonane] are 11.6% and 4.43 µM.
Take `Cc1nn(C)cc1-c1ccc(OC2CC3(CCN(CC(C)C(C)(C)C)CC3)C2)nn1` (centres unmarked) [Compound 25, 2-[6-(1,3-dimethylpyrazol-4-yl)pyridazin-3-yl]oxy-7-(2,3,3-triniethylbutyl)-7-azaspiro[3.5]nonane]: at Human M4, the remaining activity at 30 µM is 3.1% and the IC50 amounted to 0.21 µM.
In the same order, the values of `Cc1cnn(C)c1-c1ccc(NC2CC3(CCN(CC4CCOCC4)CC3)C2)nn1` [Compound 10, N-[6-(2,4-dimethylpyrazol-3-yl)pyridazin-3-yl]-7-(tetrahydropyran-4-ylmethyl)-7-azaspiro[3.5]nonan-2-amine] are 23.1% and over 10 µM.

(Values after patent publication US11149022B2, “Antagonists of the muscarinic acetylcholine receptor M4” (Vanderbilt University, priority 2017, dated 2021).)
